In US8916594B2, “5-membered ring heteroaromatic derivatives having NPY Y5 receptor antagonistic activity” (Shionogi & Co., Ltd., priority 2011, dated 2014):

Tests used:
[1] = molecular target: T1, human NPY Y5 receptor (Homo sapiens (Human), UniProt Q15761); assay: Affinity for human NPY Y5 receptor ([125I] peptide YY binding, CHO cell membranes); settings: membranes from CHO cells expressing human NPY Y5 receptor, [125I] peptide YY 60 pM, 25° C., 2 hours; read-out: 50% inhibitory concentration against the specific peptide YY binding (IC50 value)
From the text: (§1) cDNA sequence encoding a human NPY Y5 receptor (WO96/16542) was cloned in a vector (pME18S, Takebe et al. Mol. Cell. Biol. 8, 466-472). The obtained expression vector was transfected into CHO cells as a host by using Lipofect AMINE reagent (Trademark, Inbitrogen) according to the instruction manual. The cells that stably express human NPY Y5 receptor were obtained.
(§2) The membranes prepared from the CHO cells expressing human NPY Y5 receptor, the compound of this invention and 30,000 cpm [^1251] peptide YY (60 pM of final concentration: Healthcare) were incubated in the assay buffer (20 mM HEPES-Hanks buffer containing 0.1% bovine serum albumin, pH 7.4) at 25° C. for 2 hours, and then the membrane was filtered from the mixture through a glassfilter (GF/C) presoaked with 1% polyethyleneimine. After washing with 50 mM Tris-HCl buffer (pH 7.4), radioactivity retained on the filters was quantified with a gamma counter. Nonspecific binding was defined as the amount of radioactivity bound to the membranes after incubation in the presence of 200 nM of peptide YY. The 50% inhibitory concentration of the test compound against the specific peptide YY binding (IC50 value) was calculated (Inui, A. et al. Endocrinology 131, 2090-2096 (1992)).

[2] = molecular target: T1, human NPY Y5 receptor; assay: Inhibitory effect on cAMP production in CHO cells; assay type: cell-based; settings: CHO cells expressing human NPY Y5 receptor, 50 nM NPY, 10 μM forskolin; read-out: 50% inhibitory concentration (IC50 value) against the NPY activity on forskolin stimulated cAMP production
Method: CHO cells expressing human NPY Y5 receptor were incubated in the presence of 2.5 mM isobutylmethylxanthine (SIGMA) at 37° C. for 20 min. After the incubation the compound of the present invention was added, and then the mixture was incubated for 5 min. Next, 50 nM NPY and 10 μM forskolin (SIGMA) were added, and the mixture was incubated for 30 min. After termination of the reaction by adding 1N HCl, the amount of cAMP in the supernatant was determined with an EIA kit (Amersham LIFE SCIENCE). The inhibitory activity of NPY against forskolin stimulated cAMP production was expressed as 100% and the 50% inhibitory concentration (IC50 value) of the compound of the present invention against the NPY activity was calculated.

[3] = molecular target: mouse NPY Y5 receptor (Mus musculus (Mouse), UniProt O70342); assay: Affinity for mouse NPY Y5 receptor ([125I] peptide YY binding, CHO cell membranes); settings: membranes from CHO cells expressing mouse NPY Y5 receptor, [125I] peptide YY 60 pM, 25° C., 2 hours; read-out: 50% inhibitory concentration against the specific peptide YY binding (IC50 value)
From the text: as §1, with “mouse” for “human”, “(Biochim. Biophys. Acta 1328:83-89, 1997)” for “(WO96/16542)”, “8957).” for “466-472).”, “Gico BRL Co., Ltd.)” for “Inbitrogen)”, “express” for “express human”
as §2, with “expressing” for “expressing human”, “[^125I]” for “[^1251]”, “glass filter” for “glassfilter”

T1 sequence (Q15761 whole entry): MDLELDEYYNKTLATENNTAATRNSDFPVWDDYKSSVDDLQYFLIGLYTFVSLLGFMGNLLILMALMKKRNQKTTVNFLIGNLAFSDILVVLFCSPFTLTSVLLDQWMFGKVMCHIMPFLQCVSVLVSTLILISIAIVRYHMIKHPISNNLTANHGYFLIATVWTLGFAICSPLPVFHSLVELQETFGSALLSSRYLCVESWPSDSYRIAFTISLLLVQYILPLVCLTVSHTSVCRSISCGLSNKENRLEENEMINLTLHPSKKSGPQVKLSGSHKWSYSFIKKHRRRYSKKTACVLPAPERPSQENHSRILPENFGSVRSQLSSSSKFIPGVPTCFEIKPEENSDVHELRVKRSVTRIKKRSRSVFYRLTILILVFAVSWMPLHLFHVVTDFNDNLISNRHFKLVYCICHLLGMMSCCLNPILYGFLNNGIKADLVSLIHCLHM
Sequence of mouse NPY Y5 receptor (O70342 whole entry): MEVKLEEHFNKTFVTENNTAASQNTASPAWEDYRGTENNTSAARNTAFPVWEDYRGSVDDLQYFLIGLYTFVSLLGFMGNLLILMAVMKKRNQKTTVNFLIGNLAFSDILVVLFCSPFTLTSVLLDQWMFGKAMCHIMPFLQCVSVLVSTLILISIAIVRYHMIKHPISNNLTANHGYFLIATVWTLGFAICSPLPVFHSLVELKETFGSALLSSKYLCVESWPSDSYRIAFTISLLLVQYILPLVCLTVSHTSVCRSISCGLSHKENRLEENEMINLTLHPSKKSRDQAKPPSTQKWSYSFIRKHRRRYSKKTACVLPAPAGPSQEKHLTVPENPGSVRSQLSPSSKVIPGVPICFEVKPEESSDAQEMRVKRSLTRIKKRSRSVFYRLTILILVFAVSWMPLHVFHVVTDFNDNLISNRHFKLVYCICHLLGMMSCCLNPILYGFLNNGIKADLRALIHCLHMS

Row | SMILES | IC50 [1] | IC50 [2] | IC50 [3]
1 | CCS(=O)(=O)NC[C@H]1CC[C@H](Nc2nc(-c3ccc(F)c(F)c3)no2)CC1 [Compound I-029] | 860 pM | 1300 pM | 220 pM
2 | CC(C)(C)S(=O)(=O)NC[C@H]1CC[C@H](Nc2nc(C(F)(F)C(F)(F)F)no2)CC1 [Compound I-149] |  |  | 1040 pM
3 | CC(C)(C)S(=O)(=O)NC[C@H]1CC[C@H](Nc2nc(C3(F)CC(F)(F)C3)no2)CC1 [Compound I-161] |  |  | 1900 pM
4 | CS(=O)(=O)NC[C@H]1CC[C@H](Nc2nc(-c3cccc(Cl)c3)no2)CC1 [Compound I-081] |  |  | 900 pM
5 | CC(C)S(=O)(=O)NC[C@H]1CC[C@H](Nc2nc(-c3cccc(F)c3)no2)CC1 [Compound I-018] |  | 2100 pM | 200 pM
6 | CC(C)S(=O)(=O)NC[C@H]1CC[C@H](Nc2nc(C(F)(F)F)co2)CC1 [Compound I-150] |  |  | 3600 pM
7 | CS(=O)(=O)NC[C@H]1CC[C@H](Nc2nc(-c3ccc(F)cc3)no2)CC1 [Compound I-023] |  |  | 1400 pM
8 | CC(C)(C)S(=O)(=O)NC[C@H]1CC[C@H](Nc2nc(-c3ccc(F)cn3)no2)CC1 [Compound I-100] |  |  | 900 pM
9 | CCS(=O)(=O)NC[C@H]1CC[C@H](Nc2nc(C(F)(F)C(F)(F)F)no2)CC1 [Compound I-153] |  |  | 1670 pM
10 | CCS(=O)(=O)NC[C@H]1CC[C@H](Nc2nc(C3(F)CCCC3)no2)CC1 [Compound I-138] |  |  | 500 pM
11 | CC(C)S(=O)(=O)NC[C@H]1CC[C@H](Nc2nc(C(F)(F)C(F)(F)F)no2)CC1 [Compound I-152] |  |  | 650 pM
12 | CC(C)(C)S(=O)(=O)NC[C@H]1CC[C@H](Nc2nc(C(F)(F)F)no2)CC1 [Compound I-136] |  |  | 1500 pM
13 | CCS(=O)(=O)NC[C@H]1CC[C@H](Nc2nc(-c3ccccc3)no2)CC1 [Compound I-011] |  |  | 340 pM
14 | CC(C)S(=O)(=O)NC[C@H]1CC[C@H](Nc2nc(C3(C)CC(F)(F)C3)no2)CC1 [Compound I-147] |  |  | 610 pM
15 | CS(=O)(=O)NC[C@H]1CC[C@H](Nc2nc(-c3cccc(F)c3)no2)CC1 [Compound I-027] |  |  | 860 pM
16 | CC(C)(C)S(=O)(=O)NC[C@H]1CC[C@H](Nc2nc(C(F)(F)F)co2)CC1 [Compound I-146] |  |  | 4210 pM
17 | CCS(=O)(=O)NC[C@H]1CC[C@H](Nc2nc(-c3cc(F)cc(F)c3)no2)CC1 [Compound I-053] |  |  | 230 pM
18 | CCS(=O)(=O)NC[C@H]1CC[C@H](Nc2nc(-c3ccc(F)cc3F)no2)CC1 [Compound I-034] |  |  | 180 pM
19 | CC(C)S(=O)(=O)NC[C@H]1CC[C@H](Nc2nc(C(F)(F)F)no2)CC1 [Compound I-145] |  |  | 3100 pM
20 | CCS(=O)(=O)NC[C@H]1CC[C@H](Nc2nc(-c3ccc(F)cc3)no2)CC1 [Compound I-006] |  |  | 320 pM
21 | CC1(c2noc(N[C@H]3CC[C@H](CNS(=O)(=O)C(C)(C)C)CC3)n2)CC(F)(F)C1 [Compound I-143] |  |  | 800 pM
22 | CC(C)(c1ccccc1)c1noc(N[C@H]2CC[C@H](CNS(=O)(=O)C(C)(C)C)CC2)n1 [Compound I-130] |  |  | 700 pM
23 | CCS(=O)(=O)NC[C@H]1CC[C@H](Nc2nc(-c3cccc(F)c3)no2)CC1 [Compound I-017] | 810 pM | 3300 pM | 220 pM
24 | CC(C)S(=O)(=O)NC[C@H]1CC[C@H](Nc2nc(-c3ccccc3)no2)CC1 [Compound I-024] |  |  | 130 pM
25 | CC(C)S(=O)(=O)NC[C@H]1CC[C@H](Nc2nc(-c3ccc(F)cn3)no2)CC1 [Compound I-099] |  |  | 800 pM
